Experimental data: ChEMBL document CHEMBL1150953, “Novel betaines from the marine sponge Agelas dispar” (1998)
Values after ≈ are worked out from the molar mass of the structure shown.

Columns and labels:
Staphylococcus aureus = test: Antibacterial activity against Staphylococcus aureus ATCC 6538 after 16 hrs; format: functional; settings: ATCC 6538, 16 h
Bacillus subtilis = test: Antibacterial activity against Bacillus subtilis ATCC 6633 after 16 hrs; format: functional; settings: ATCC 6633, 16 h

| MIC (Staphylococcus aureus) [µg/mL] | MIC (Bacillus subtilis) [µg/mL] | Structure (SMILES) |
| --- | --- | --- |
| 5 (≈ 29.9 µM) | 3.5 (≈ 20.9 µM) | O=C([O-])c1ccc[n+](CCO)c1 [PYRIDINEBETAINE A] |
| 8.5 (≈ 50.2 µM) | 2.5 (≈ 14.8 µM) | Cn1c(CC(=O)[O-])c[n+](C)c1N [AMINOZOOANEMONIN] |
